Measurements published in publication PMC9495676, “Evaluation of the Antimicrobial Properties of a Natural Peptide from Vespa mandarinia Venom and Its Synthetic Analogues as a Possible Route to Defeat Drug-Resistant Microbes” (Biology, 2022).
No end group written: not given here.

Assays:
MRSA biofilm = experiment: Antibiofilm assay (MBIC/MBEC), crystal violet; type: cell-based, methicillin-resistant Staphylococcus aureus; settings: TSB, 595 nm, nine replicates from three independent experiments; for MBIC: MRSA biofilm inhibition; for MBEC: MRSA preformed 24 h biofilm, peptide 24 h at 37 °C
Description: (§1) The minimal biofilm inhibitory concentration assay (MBIC) and minimal biofilm eradication concentration assay (MBEC) were performed on each of the peptides using Gram-positive bacteria cultured in Tryptic Soy Broth (TSB, Sigma-Aldrich, St. Louis, MO, USA) and Gram-negative bacteria cultured in Luria-Bertani broth (LB, Thermo Fisher Scientific, Carlsbad, CA, USA). The seeding concentration in 96-well plates of bacterial suspension was the same as for the anti-bacterial assay, and a UV spectrophotometer set to 550 nm was used to detect OD values. Melittin was used as a positive control. For MBIC, peptide solution was mixed with bacterial suspension at first to test if it could inhibit the growth of biofilm. However, for minimal biofilm eradication (MBEC) assays, biofilm was formed in 96-well plates at 37 °C for 24 h after seeding bacteria; afterwards, it was washed by sterile PBS twice. Peptide solutions, prepared with culture broth, were added to […] the biofilms by incubating at 37 °C for 24 h. Both plates were washed by PBS twice and stained by 125 µL 0.1% crystal violet solution (Sigma-Aldrich, Gillingham, UK). The stain was dissolved in 150 µL 30% acetic acid (Sigma-Aldrich, Gillingham, UK). The absorbance values of 100 µL solution from each well, were analysed by using a Synergy HT plate reader (Biotech, Minneapolis, MN, USA) set at 595 nm.

P. aeruginosa biofilm = experiment: Antibiofilm assay (MBIC/MBEC), crystal violet; type: cell-based, Pseudomonas aeruginosa; settings: LB, 595 nm, nine replicates from three independent experiments; for MBIC: P. aeruginosa biofilm inhibition; for MBEC: P. aeruginosa preformed 24 h biofilm, peptide 24 h at 37 °C
Description: as §1

E. faecalis biofilm = experiment: Antibiofilm assay (MBIC/MBEC), crystal violet; type: cell-based, Enterococcus faecalis; settings: TSB, 595 nm, nine replicates from three independent experiments; for MBIC: E. faecalis biofilm inhibition; for MBEC: E. faecalis preformed 24 h biofilm, peptide 24 h at 37 °C
Description: as §1

S. aureus biofilm = experiment: Antibiofilm assay (MBIC/MBEC), crystal violet; type: cell-based, Staphylococcus aureus; settings: TSB, 595 nm, nine replicates from three independent experiments; for MBIC: S. aureus biofilm inhibition; for MBEC: S. aureus preformed 24 h biofilm, peptide 24 h at 37 °C
Description: as §1

K. pneumoniae biofilm = experiment: Antibiofilm assay (MBIC/MBEC), crystal violet; type: cell-based, Klebsiella pneumoniae; settings: LB, 595 nm, nine replicates from three independent experiments; for MBIC: K. pneumoniae biofilm inhibition; for MBEC: K. pneumoniae preformed 24 h biofilm, peptide 24 h at 37 °C
Description: as §1

E. coli biofilm = experiment: Antibiofilm assay (MBIC/MBEC), crystal violet; type: cell-based, Escherichia coli; settings: LB, 595 nm, nine replicates from three independent experiments; for MBIC: E. coli biofilm inhibition; for MBEC: E. coli preformed 24 h biofilm, peptide 24 h at 37 °C
Description: as §1

MRSA (ATCC 12493) = experiment: MIC/MBC broth dilution assay; type: cell-based, methicillin-resistant Staphylococcus aureus; settings: 37 °C overnight, nine replicates from three independent experiments; for MIC: broth dilution, Mueller–Hinton broth, 5 × 10^5 CFU/mL, OD 550 nm; for MBC: sub-culture on MHA
Description: (§2) The minimal inhibitory concentration assay (MIC) and minimum bactericidal concentration assay (MBC) of the peptide were carried out using the broth dilution method. Seven microbes, including the Gram-positive bacteria, S. aureus (NCTC 6538), MRSA, (ATCC 12493) and Enterococcus faecalis (E. faecalis) (NCTC 12697); Gram-negative bacteria, E. coli (ATCC 8739), Klebsiella pneumoniae (K. pneumoniae) (ATCC 43816) and Pseudomonas aeruginosa (P. aeruginosa) (ATCC 9027); and a yeast, C. albicans (ATCC 10231), were used in these assays and incubated with peptide at 37 °C overnight. The growth culture media were Yeast Extract Peptone Dextrose for C. albicans and Mueller–Hinton broth for others. The concentration of microbes was detected by measuring OD values through the use of a UV spectrophotometer set to 550 nm. C. albicans assays required 10^6 colony forming units (CFU)/mL, while others were incubated with 10^8 CFU/mL and verified by viable cell counts. All of the inocula were diluted to final concentrations of 5 × 10^5 CFU/mL. The concentration of peptides ranged from 1 µM to 512 µM (C = 1, 2, 4, 8, 16, 32, 64, 128, 256, 512 µM). Two mg/mL of amphotericin B for C. albicans and 2 mg/mL norfloxacin for others were applied as positive controls, and 1% of dimethyl sulphoxide (DMSO) was applied as a vehicle control. The 96-well plates were analysed at 550 nm using an ELISA plate reader (Biolise BioTek EL808, Winooski, VT, USA).
(§3) After analysing the growth situation of microbial cultures from each concentration, 10 µL of the inhibited cultures (the peptide concentration ranges from MIC to maximum concentration) were selected to sub-culture onto the Mueller–Hinton agar (MHA) plates. The plates were incubated overnight at 37 °C. After incubation, the lowest concentration on the MHA plates with no bacterial growth was regarded as the MBC value.

[1] = tested on: K. pneumoniae (ATCC 43816); experiment: MIC/MBC broth dilution assay; type: cell-based, Klebsiella pneumoniae; settings: 37 °C overnight, nine replicates from three independent experiments; for MIC: broth dilution, Mueller–Hinton broth, 5 × 10^5 CFU/mL, OD 550 nm
Description: as §2, §3

E. coli (ATCC 8739) = experiment: MIC/MBC broth dilution assay; type: cell-based, Escherichia coli; settings: 37 °C overnight, nine replicates from three independent experiments; for MIC: broth dilution, Mueller–Hinton broth, 5 × 10^5 CFU/mL, OD 550 nm; for MBC: sub-culture on MHA
Description: as §2, §3

E. faecalis (NCTC 12697) = experiment: MIC/MBC broth dilution assay; type: cell-based, Enterococcus faecalis; settings: 37 °C overnight, nine replicates from three independent experiments; for MIC: broth dilution, Mueller–Hinton broth, 5 × 10^5 CFU/mL, OD 550 nm; for MBC: sub-culture on MHA
Description: as §2, §3

horse erythrocytes = experiment: Haemolysis assay; type: cell-based; settings: 4% (v/v) defibrinated horse erythrocytes, 37 °C, 2 h, 550 nm; normalised to 1% Triton X-100; calculated from the haemolysis curve
Description: Defibrinated horse erythrocytes (TCS Biosciences Ltd., Buckingham, UK) were used in the haemolysis assay. Peptides, from 1 μM to 512 μM, were tested with a 4% (v/v) erythrocyte suspension and were incubated at 37 °C for 2 h, while 1% Triton X-100 (Sigma-Aldrich, St. Louis, MO, USA) was acted as a positive control and phosphate-buffered saline (PBS) was used as a negative control. The sample supernatants were analysed at 550 nm on an ELISA plate reader (Biolise BioTek EL808, Winooski, VT, USA).

S. aureus (NCTC 6538) = experiment: MIC/MBC broth dilution assay; type: cell-based, Staphylococcus aureus; settings: 37 °C overnight, nine replicates from three independent experiments; for MIC: broth dilution, Mueller–Hinton broth, 5 × 10^5 CFU/mL, OD 550 nm; for MBC: sub-culture of inhibited cultures on MHA
Description: as §2, §3

[2] = tested on: P. aeruginosa (ATCC 9027); experiment: MIC/MBC broth dilution assay; type: cell-based, Pseudomonas aeruginosa; settings: 37 °C overnight, nine replicates from three independent experiments; for MIC: broth dilution, Mueller–Hinton broth, 5 × 10^5 CFU/mL, OD 550 nm; for MBC: sub-culture on MHA
Description: as §2, §3

C. albicans (ATCC 10231) = experiment: MIC/MBC broth dilution assay; type: cell-based, Candida albicans; settings: 37 °C overnight, nine replicates from three independent experiments; for MIC: broth dilution, Yeast Extract Peptone Dextrose, 5 × 10^5 CFU/mL, OD 550 nm
Description: as §2, §3

Molecule | MBIC (MRSA biofilm) [µM] | MBIC (P. aeruginosa biofilm) | MBIC (E. faecalis biofilm) [µM] | MBIC (S. aureus biofilm) [µM] | MBIC (K. pneumoniae biofilm) | MBIC (E. coli biofilm) | MBC (MRSA (ATCC 12493)) | MIC [1] [µM] | MIC (E. coli (ATCC 8739)) [µM] | MBEC (MRSA biofilm) [µM] | MBEC (P. aeruginosa biofilm) | MBEC (E. faecalis biofilm) [µM] | MIC (E. faecalis (NCTC 12697)) | MBEC (S. aureus biofilm) [µM] | HC50 (peptide concentration that caused 50% lysis of horse red blood cells) (horse erythrocytes) [µM] | MBEC (K. pneumoniae biofilm) | MBC (S. aureus (NCTC 6538)) | MIC [2] [µM] | MIC (C. albicans (ATCC 10231)) [µM] | MBEC (E. coli biofilm) | other results
CC[C@H](C)[C@H](NC(=O)CN)C(=O)NCC(=O)N[C@@H](C)C(=O)N[C@H](C(=O)N[C@@H](CC(C)C)C(=O)N[C@@H](CCCCN)C(=O)N[C@H](C(=O)N[C@@H](CC(C)C)C(=O)N[C@H](C(=O)N[C@H](C(=O)NCC(=O)N[C@@H](CC(C)C)C(=O)N1CCC[C@H]1C(=O)N[C@@H](C)C(=O)N[C@@H](CC(C)C)C(=O)N[C@H](C(=O)N[C@@H](CO)C(=O)N[C@@H](Cc1c[nH]c2ccccc12)C(=O)N[C@H](C(=O)N[C@@H](CCCCN)C(=O)N[C@@H](CCCNC(=N)N)C(=O)N[C@@H](CCCCN)C(=O)N[C@@H](CCCNC(=N)N)C(=O)N[C@@H](CCC(N)=O)C(=O)N[C@@H](CCC(N)=O)C(N)=O)[C@@H](C)CC)[C@@H](C)CC)[C@@H](C)O)[C@@H](C)O)C(C)C)C(C)C [Melittin, reference compound] | 8 | 64 µM | 8 | 4 | 128 µM | 32 µM |  |  |  |  |  |  |  |  |  |  |  |  |  |  | 
FLGIIGKLLSGLL-NH2 [VM-3G] | 2 | >512/>512 µM | 8 | 2 | >512/>512 µM | 256 µM | 2 µM | >512 | 64 | 32 | >512/>512 µM | > 512 | 4 µM | 32 | 9.686 | >512/>512 µM | 1 µM | 128 | >512 | > 512 µM | MIC (MRSA (ATCC 12493)): 2 µM; MBC (E. coli (ATCC 8739)): 128 µM; MBC (E. faecalis (NCTC 12697)): 4 µM; MIC (S. aureus (NCTC 6538)): 1 µM; MBC [2]: 128 µM
FLKIIGKLLSGLL-NH2 [VM-3K] | 2 | 32 µM | 4 | 2 | 64 µM | 16 µM | 2 µM | 32 | 8 | 64 | > 512 µM | > 512 | 2/2 µM | 32 | 11.2 | > 512 µM | 1 µM | 16 | 32 | > 512 µM | MIC (MRSA (ATCC 12493)): 1 µM; MBC ([1]; sub-culture on MHA): 32 µM; MBC (E. coli (ATCC 8739)): 8 µM; MIC (S. aureus (NCTC 6538)): 1 µM; MBC [2]: 16 µM; MBC (C. albicans (ATCC 10231); sub-culture on agar plates): 32 µM
FLWIIGKLLSGLL-NH2 [VM-3W] | 4 | >512/>512 µM | 16 | 4 | >512/>512 µM | >512/>512 µM | 2 µM | >512 | >512 | 128 | >512/>512 µM | > 512 | 4 µM | 128 | 9.682 | >512/>512 µM | 1 µM | >512 | >512 | >512/>512 µM | MIC (MRSA (ATCC 12493)): 2 µM; MBC (E. faecalis (NCTC 12697)): 4 µM; MIC (S. aureus (NCTC 6538)): 1 µM
FLYIIGKLLSGLL-NH2 [VM-3Y] | 2 | >512/>512 µM | 64 | 2 | >512/>512 µM | >512/>512 µM | 2/2 µM | >512 | >512 | 64 | >512/>512 µM | > 512 | 4 µM | 128 | 211.2 | >512/>512 µM | 2/2 µM | >512 | >512 | >512/>512 µM | MBC (E. faecalis (NCTC 12697)): 4 µM
